Measured values: paper PMC6413231, “o-Vanillin Derived Schiff Bases and Their Organotin(IV) Compounds: Synthesis, Structural Characterisation, In-Silico Studies and Cytotoxicity” (International Journal of Molecular Sciences, 2019)

Columns and labels:
[1] = test system: MIA (pancreatic) cancer cells; test: MTT growth inhibition assay, MIA; format: cell-based; settings: 72 h, ± standard error, read-out: Growth Inhibition Concentration, GI50
Protocol: (§1) The Schiff bases and their organotin(IV) compounds were screened for in vitro cytotoxicity against a panel of 12 cancer cell lines: EJ-28 (muscle invasive bladder), RT-112 (minimum-invasive bladder), HT29 (colon), U87 and SJ-G2 (glioblastoma), MCF-7 (breast), A2780 (ovarian), H460 (lung), A431 (skin), DU145 (prostate), BE2-C (neuroblastoma), MIA (pancreatic) and one normal breast cell line (MCF-10A) using the MTT metabolic assay (Figure 6). After 72 h of incubation, a dose-dependent […] effect towards the cancer cell lines was measured at very low micromolar (µM) concentrations of the compounds. The growth inhibition concentration of the Schiff bases and their organotin(IV) compounds required to inhibit 50% cell proliferation relative to the cells that were treated with DMSO (control) are given in Table 2. The stability of these compounds was assessed in DMSO as well as in a mixture of DMSO-H2O. The absorbance obtained from UV-vis spectroscopy analysis was monitored for 72 h, and an unchanged pattern in the spectra was indicative that the compounds were stable in both the solvent systems tested.
(§2) For HT29 (colon), U87 and SJ-G2 (glioblastoma), MCF-7 (breast), A2780 (ovarian), H460 (lung), A431 (skin), Du145 (prostate), BE2-C (neuroblastoma), MIA (pancreas) cell lines and one normal breast cell line, MCF-10A (normal breast), the MTT assays were performed using the following method:
(§3) Stock solutions were prepared as follows and stored at −20 °C: Trial compounds were stored as 10 mM solutions in DMSO. All cell lines were cultured in a humidified atmosphere 5% CO2 at 37 °C. The cancer cell lines were maintained in Dulbecco’s modified Eagle’s medium (DMEM) (Trace Biosciences) supplemented with 10% foetal bovine serum, 10 mM sodium bicarbonate, penicillin (100 IU/mL), streptomycin (100 μg/mL) and glutamine (4 mM). The normal cell line, MCF-10A was cultured in DMEM:F12 (1:1) cell culture media, 5% heat inactivated horse serum, supplemented with penicillin (50 IU/mL), streptomycin (50 μg/mL), 20mM Hepes, L-glutamine (2 mM), epidermal growth factor (20 ng/mL), hydrocortisone (500 ng/mL), cholera toxin (100 ng/mL) and insulin (10 μg/mL).
(§4) Cells in logarithmic growth were transferred to 96-well plates. Cytotoxicity was determined by plating cells in duplicate in 100 μL medium at a density of 2500–4000 cells/well. On day 0 (24 h after plating), when the cells were in logarithmic growth, 100 μL medium, with or without the test agent, was added to each well. After 72 h drug exposure, growth inhibitory effects were evaluated using the MTT (3-[4,5-dimethylthiazol-2-yl]-2,5-diphenyltetrazolium bromide) assay and absorbance read at 540 nm. Percentage growth inhibition was determined at a fixed drug concentration of 25 μM. A value of 100% was indicative of complete cell growth inhibition. Those analogues showing appreciable percentage growth inhibition underwent further dose-response analysis allowing for the calculation of a GI50 value. This value is the drug concentration at which cell growth is 50% inhibited based on the difference between the optical density values on day 0 and those at the end of drug exposure.

[2] = test system: MCF-10A (normal breast) cell line; test: MTT growth inhibition assay, MCF10A; format: cell-based; settings: MCF10A normal breast cells, 72 h, ± standard error, read-out: Growth Inhibition Concentration, GI50
Protocol: as §1, §2, §3, §4

[3] = test system: HT29 (colon) cancer cells; test: MTT growth inhibition assay, HT29; format: cell-based; settings: 72 h, ± standard error, read-out: Growth Inhibition Concentration, GI50
Protocol: as §1, §2, §3, §4

[4] = test system: Du145 (prostate) cancer cells; test: MTT growth inhibition assay, Du145; format: cell-based; settings: 72 h, ± standard error, read-out: Growth Inhibition Concentration, GI50
Protocol: as §1, §2, §3, §4

[5] = test system: U87 (glioblastoma) cancer cells; test: MTT growth inhibition assay, U87; format: cell-based; settings: 72 h, ± standard error, read-out: Growth Inhibition Concentration, GI50
Protocol: as §1, §2, §3, §4

[6] = test system: RT-112 (minimum-invasive bladder) cancer cells; test: MTT cytotoxicity assay, RT-112; format: cell-based, human; settings: RT-112 cells, 72 h, ± standard error, read-out: Growth Inhibition Concentration, GI50
Protocol: as §1
The inhibitory effect of the synthesised compounds on the growth of bladder (EJ-28 and RT-112) cancer cells was evaluated by MTT assay. […] RT-112 and EJ-28, human bladder cancer cell lines used in this study (ATCC, Manassas, VA, USA) were cultured in RPMI-1640 (High glucose) medium supplemented with 10% fetal bovine serum containing 1% penicillin. The cells were cultured at 37 °C in a humidified atmosphere of 5% CO2 in air. Cells were seeded in 96-well plates at 6000 cells per well for 24 h, then they were treated with different concentrations of compounds for 72 h. The medium was subsequently removed and the wells were washed with 200 µL of phosphate buffer saline. Aliquots of 20 µL of 3-(4,5-dimethylthiazol-2-yl)-2,5-diphenyltetrazolium bromide (MTT) was added to each well and incubated for 4 h at 37 °C. Aliquots of 200 µL of media was then removed from each well and 200 µL of DMSO was added. Optical density (OD) was measured using an ELISA plate reader at 570 nm. Control wells (100% viability), containing media and DMSO, were included in all the experiments. All data points represented an average of triplicate assays. Cytotoxicity was expressed as CD50, i.e., the concentration that reduced the absorbance of treated cells by 50% with reference to the control (untreated cells).

A431 (skin) cancer cells = test: MTT growth inhibition assay, A431; format: cell-based; settings: 72 h, ± standard error, read-out: Growth Inhibition Concentration, GI50
Protocol: as §1, §2, §3, §4

[7] = test system: MCF-7 (breast) cancer cells; test: MTT growth inhibition assay, MCF-7; format: cell-based; settings: MCF-7 cells, 72 h, ± standard error, read-out: Growth Inhibition Concentration, GI50
Protocol: as §1, §2, §3, §4

| Substance | GI50 [1] [nM] | GI50 [2] [nM] | GI50 [3] [nM] | GI50 [4] [nM] | GI50 [5] [nM] | GI50 [6] [nM] | GI50 (A431 (skin) cancer cells) [nM] | GI50 [7] [nM] |
| --- | --- | --- | --- | --- | --- | --- | --- | --- |
| Diphenyltin(IV) [Ph2Sn(S2MoVa), Diphenyltin(IV) [S-2-Methybenzyl-β-N-(2-hydroxy-3-methoxybenzylmethylene) dithiocarbazate]] | 340 ± 20 | 1200 ± 300 | 1800 ± 130 | 1700 ± 70 | 4400 ± 1700 | 310 ± 50 | 2100 ± 90 | 1400 ± 120 |
| Diphenyltin(IV) [Ph2Sn(S4MoVa), Diphenyltin(IV) [S-4-Methybenzyl-β-N-(2-hydroxy-3-methoxybenzylmethylene) dithiocarbazate]] | 390 ± 30 | 1100 ± 370 | 870 ± 220 | 1500 ± 310 | 1300 ± 400 | 1700 ± 490 | 1400 ± 380 | 820 ± 140 |
